These results are taken from the OPERA property sets (Mansouri et al. 2018).

Where a SMILES comes first, the peptide text is derived from it. [ ]: non-standard residue; d: D form. Orn = NCCC[CH](N)C(=O)O

`CCCC(=O)OCn1ncc2c(=O)[nH]cnc21` returned a logP of 0.6. For `C#CCOc1c(Cl)cc(NC=NOCCCl)cc1Cl` the value was 3.7; for `CNN=Nc1ccc(C(N)=O)cc1`, 0.47; for `O=S1(=O)NC(C2CCCCC2)=Nc2ccccc21`, 2.2. For `CC1CC2C3CCC4=CC(=O)C=CC4(C)C3(F)C(O)CC2(C)C1(O)C(=O)NCCO` (configuration not stated), the logP amounted to 1.51. As for `NC(=O)COc1cccc(Cc2cnc(N)nc2N)c1`, the figure is 0.28. As for `CC(=O)NC(CCCN)C(=O)NC(Cc1ccccc1)C(N)=O` (configuration not stated), the figure is 0.41; as for `O=[N+]([O-])C=C1NCCN1Cc1ccncc1`, -1.05; as for `C#CCC(O)(c1cccnc1)c1ccc(Cl)cc1Cl` (configuration not stated), 2.29. As for `CC(C)(C)N(NC(=O)c1cccc(F)c1)C(=O)c1ccccc1Cl`, the figure is 2.88; as for `CCCCOc1cccc(NC(=O)OCCN2CCOCC2)c1`, 3.62. Compound `CCOc1ccc(C2(C(=O)OC)CC2(Cl)Cl)cc1` (configuration not stated) displayed a logP of 4.1.

Regarding `Cc1c(O)c(=O)ccn1-c1ccccc1`, the logP was 1.12. For `CCOC(=O)CCC(C)n1nc2ccccc2n1` (configuration not stated) the value was 3.05. As for `Cc1ccc(C(=O)OCCN(C)C)cc1`, the figure is 2.53; as for `CCN1C(=O)C(=O)c2cccc(OC)c2C1=O`, 0.94; as for `COC1CC(OC2CCC3(C=O)C4CCC5(C)C(C6=CC(=O)OC6)CCC5(O)C4CCC3(O)C2)OCC1OC1CC(O)C(O)C(C)O1` (configuration not stated), -0.96. For `CCCC(CCC)(NC(C)=O)C(N)=O` the value was 0.75; for `Clc1cccc(-c2cc(Cl)c(Cl)c(Cl)c2Cl)c1Cl`, 7.32. `CO[C@@]1(NC(=O)C(C(=O)O)c2ccc(O)cc2)C(=O)N2C(C(=O)O)=C(CSc3nnnn3C)CO[C@@H]21` (some centres not stated): the logP is -0.58. For the compound `O=[N+]([O-])c1cnc(C=Cc2ccccc2)n1CCO`, the logP was 2.25. In turn, `CN1C=CCC(C(=O)OC2CCC(NC(=O)N(CCCl)N=O)CC2)=C1` (configuration not stated) yielded a logP of 2.53.

`CCN1C(=O)C(=O)c2cc3ccccc3cc2C1=O` had a logP of 2.47. As for `O=C(Cn1c(=O)sc2ccc(Cl)cc21)N1CCN(CCOS(=O)(=O)O)CC1`, the figure is -1.47. For `C#CCCOCn1ccnc1C=NO` the value was 0.67; for `C#CC1(OC(=O)C2=CN(C)C=CC2)CCC2C3CCC4=CC(=O)CCC4C3CCC21C` (configuration not stated), 4.44. As for `O=C(O)C(OCc1ccccc1)c1ccccc1` (configuration not stated), the figure is 2. In turn, `O=C1NC(=O)N(Cc2ccccc2)C(=O)C1=O` registered a logP of 1.02.

`CCOc1ccc(OCc2ccccc2CCCN2CCC(O)CC2)cc1` returned a logP of 3.42.

For the compound `CCCCC(NC(Cc1ccccc1)C(=O)N1CCC(OCOC)CC1)C(=O)NC(CC1CCCCC1)C(O)CC(C(=O)NCCCNCCO)C(C)C` (configuration not stated), the logP is 3.5.

The compound `COc1cccc(OCc2ccccc2CCCN2CCC(O)CC2)c1` displayed a logP of 3.35. For `CCCn1c(=O)c2[nH]c(-c3ccc(S(=O)(=O)NCCN(C)C)cc3)nc2n(CCC)c1=O` the value was 3.32. As for `CSC(=O)c1c(C(F)F)nc(C(F)(F)F)c(C(=O)SC)c1CC(C)C`, the figure is 4.75; as for `CCCCOC(=O)NCCn1c([N+](=O)[O-])cnc1C`, 1.22. As for `CCCC(C)C(=O)OCC1CCC(n2cnc3c(=O)[nH]cnc32)O1` (configuration not stated), the figure is 1. As to `NC(COCc1cccnc1)C(=O)O` (configuration not stated), the logP is -2.44. For `Cn1cc(-c2ccccc2)c(=O)c(-c2cccc(C(F)(F)F)c2)c1` the value was 3.16; for `CC(NC(=O)N(CCCl)N=O)C(=O)O` (configuration not stated), 0.78. `CCCCOc1ccc(OCC(OC(=O)n2ccnc2)C(C)(C)C)cc1` (configuration not stated): the logP stood at 4.29. As for `O=C(O)c1ccc(CCl)cc1`, the figure is 2.12. As for `COc1cc(O)cc(OC)c1O`, the lipophilicity (logP) is 0.17. `CC(=O)OC1C(=O)C2(C)C(O)CC3OCC3(OC(C)=O)C2C(OC(=O)c2ccccc2)C2(O)CC(OC(=O)C(C)O)C(C)=C1C2(C)C` (configuration not stated): the logP stood at 1.52. Compound `CCOc1cccc(OCc2ccccc2CCCN2CCC(O)CC2)c1` displayed a logP of 3.5.

Take `CC(C)c1cccc(C(C)C)c1N`: the logP is 3.18. For `CC(C)(C)C(=O)OCOC(=O)C1=C(CSc2nncs2)CSC2C(NC(=O)Cn3cnnn3)C(=O)N12` (configuration not stated) the value was 1.45; for `CC(=O)NC(CCCCN)C(=O)NC(CC(C)C)C(N)=O` (stereo not drawn) (Ac-Lys-Leu-NH2; configuration not given here), -0.26. As for `COc1ccc(OCCO)cc1`, the logP came to 1.13. For `CC(C)C(=O)NS(=O)(=O)c1ccc(C(F)(F)F)cc1N` the value was 2.56. For `Cc1nc([N+](=O)[O-])c(Br)n1C` the value was 0.44; for `CC(=O)NC(CCCN)C(=O)NC(CC(C)C)C(N)=O` (configuration not stated) (Ac-[Orn]-Leu-NH2; configuration not given here), -0.71.

As for `CCN(CC)C(=O)OCCCc1cccnc1`, the logP is 2.36. For `FC(F)(F)c1ccccc1C1OCC2ON=C(c3ccccc3)C2CO1` (configuration not stated) the value was 4.31. For `N#CN=C1NCCN1Cc1cccnc1` the value was 0.77. `C#CCOc1c(Cl)cc(NC=NOCCC)cc1Cl` yielded a logP of 4. For `CNC(=NC#N)NCCSCc1ncn(COC(=O)C(C)(C)C)c1C` the value was 1.81; for `CCCCCCC(=O)N1CCCC1=O`, 3.04; for `O=[N+]([O-])N=C1NCCN1Cc1cccnc1`, -0.19. For `CC1CC2C3CCC4=CC(=O)C=CC4(C)C3(F)C(O)CC2(C)C1(O)C(=O)NCC#N` (configuration not stated) the value was 1.57; for `CCOc1ncnc2c1ncn2C1OC(CO)CC1F` (configuration not stated), 0.8; for `O=[N+]([O-])C=C1NCCN1CCc1ccc(Cl)nc1`, -0.23. As to `CC(C)(C)C(=O)C(C#N)=NNc1ccc(Cl)cc1C(F)(F)F`, the logP is 5.67. As for `CNCCN(C)S(=O)(=O)c1ccc(CONC(N)=O)c([N+](=O)[O-])c1`, the figure is 0.45. For `COc1cccc(OC)c1-c1nc2ccncc2[nH]1` the value was 1.66; for `CCN1CCN(C(=O)N[C@@H](C(=O)N[C@@H]2C(=O)N3[C@@H]2SC(C)(C)[C@@H]3C(=O)O)c2ccccc2)C(=O)C1=O`, 0.5. As for `O=C(O)C(Cc1ccc(F)cc1)n1cccc1` (configuration not stated), the figure is 2.04; as for `OCC1CC(F)C(n2cnc3c(Br)ncnc32)O1` (configuration not stated), 0.44. In turn, `Cn1c([N+](=O)[O-])cnc1-c1ccccc1` came in with a logP of 1.58. For `CC(C)NCC(O)COCCCc1ccccc1` (configuration not stated) the value was 1.94; for `Nc1nc(Sc2ccc(Cl)cc2)nc(C(Cl)(Cl)Cl)n1`, 4.51; for `C=CCn1cnc2c(=O)[nH]c(Nc3ccccc3)nc21`, 1.75.

The compound `COc1ncnc2c1ncn2C1OC(CO)CC1F` (configuration not stated) registered a logP of 0.25. Turning to `CC(=O)NC(CC(C)C)C(=O)NC(CCCCN)C(=O)NC(Cc1ccccc1)C(N)=O` (stereo not drawn) (Ac-Leu-Lys-Phe-NH2; configuration not given here), the logP came out at 1.14. As for `O=C(Cc1ccccc1)Nc1cccc(C(F)(F)F)c1`, the figure is 3.84. `O=C(NCCO)C(F)(F)Cn1cnc([N+](=O)[O-])n1` came in with a logP of -0.77. For `O=c1nc(N=CN2CCOCC2)ccn1C1OC(CO)C(O)C1O` (configuration not stated) the value was -1.66. As for `Brc1ccc(Br)c(-c2cc(Br)c(Br)cc2Br)c1`, the figure is 7.1; as for `CCNc1nc(NC)nc(SC(F)F)n1`, 2.68; as for `O=Cc1ccc(O)c2ncccc12`, 1.63.

In turn, `CCC(C)NC(=O)C(=Cc1ccccc1)Cc1ccccc1` (configuration not stated) came in with a logP of 3.99. `CNC(=O)C=C(C)OP(=O)(OC)OC` had a logP of -0.2. As for `CCC(=O)C1(c2cccc(OC(=O)OC(C)C)c2)CCN(C)CC1`, the figure is 1.72; as for `Cc1n[nH]c(C(=O)NC2CC2)c1[N+](=O)[O-]`, 0.25; as for `CCCCOC(=O)C(C(=O)OCCCC)=C1SCCS1`, 4.6.

`C#CCOc1c(Cl)cc(NC=NOCC(=O)OCC)cc1Cl` had a logP of 3.6. Turning to `Cc1ccc(NN=C(C#N)C#N)c([N+](=O)[O-])c1`, the logP turned out to be 2.5.

Take `S=C(N/N=C/c1ccc[nH]1)Nc1ccccc1`: the logP worked out at 3.73.

In turn, `COC(=O)NCCn1c([N+](=O)[O-])cnc1C` yielded a logP of 0.02. In turn, `O=C(Cn1ccnc1[N+](=O)[O-])NCCCCO` registered a logP of -0.74. As for `O=[N+]([O-])C=C1NCCN1Cc1cccnc1`, the figure is -1.02; as for `C#CCOc1c(Cl)cc(NC=NOCOCC)cc1Cl`, 3.5; as for `CCCCOc1ccccc1NC(=O)OCCN1CCOCC1`, 3.25. For `c1ccc(SCc2ccc(CCCN3CCOCC3)cc2)cc1` the value was 3.62; for `CCCOc1cccc(NC(=O)OCCN2CCOCC2)c1`, 3.04; for `CNC(=O)C1(O)C(C)CC2C3CCC4=CC(=O)C=CC4(C)C3(F)C(O)CC21C` (configuration not stated), 1.54. For `CCCCCOc1ccc2ccc(=O)oc2c1` the value was 3.92; for `O=[N+]([O-])C=C1NCCN1Cc1ccccc1`, 0.33.

For the compound `O=c1[nH]c2ccccc2n1C1CCN(CC(O)C2COc3ccccc3O2)CC1` (configuration not stated), the log partition coefficient (logP) came to 3.43. As for `CCN1CC(C(O)C(CC2CCCCC2)NC(=O)C(Cc2c[nH]cn2)NC(=O)C(Cc2ccc(OC)cc2)NC(=O)N(C)CCOCOC)OC1=O` (configuration not stated), the figure is 2.3; as for `COc1cc2c(c(OC)c1OC)-c1ccc(OC)c(=O)cc1C(NC(=O)C(F)(F)F)CC2` (configuration not stated), 1.72; as for `O=[N+]([O-])C=C1NCCN1Cc1ccccn1`, -0.87. For `c1ccc(-c2ccc(C(c3ccccc3)n3ccnc3)cc2)cc1` (configuration not stated) the value was 4.77. As for `CCC(C)C(NC(=O)C(CCCN)NC(C)=O)C(=O)NC(C(N)=O)C(C)C` (stereo not drawn) (Ac-[Orn]-Ile-Val-NH2; configuration not given here), the figure is -0.43. `Clc1cc2c(cc1Cl)Oc1c(cc(Cl)c(Cl)c1Cl)O2` yielded a lipophilicity (logP) of 6.64. As for `COc1ccc(Cc2cccc(-c3c(O)c4ccc(Cl)cc4[nH]c3=O)c2)cc1`, the figure is 4.8; as for `CN1C=CCC1c1cccnc1` (configuration not stated), 1.47; as for `CCC(CC)C(=O)NS(=O)(=O)c1ccc(C(F)(F)F)cc1N`, 3.04. In turn, `Oc1ccc(F)c2cccnc12` returned a logP of 2.3.
